According to article PMC10008561 (Nature Communications, 2023):
Values joined by “and” are separate entries in the source; they are usually repeats but may differ in a detail not shown here. Equal values may be shown once. Read-outs that look alike come from different tables or passages of the source.

Assays:
[1] = tested on: KOR; assay type: cell-based, human
[2] = target: T1, human KOR (β-arrestin 1) (Homo sapiens, UniProt P41145); assay: cell-based; conditions: HEK-293T
T1 construct: expressed in transfected cells; host or cells: HEK293T

[3] = target: T2, KOR Q115N (Homo sapiens, UniProt P41145, Q115N); assay: cell-based; set-up: TEV cleavage site (C); tTA transcription factor (C); expressed in transfected cells; host or cells: HTLA cells; conditions: read-out: Tango response (Figure S4C), KOR Q115N, Log [Drug], replicate values
Target sequence in this assay (P41145 whole entry Q115N): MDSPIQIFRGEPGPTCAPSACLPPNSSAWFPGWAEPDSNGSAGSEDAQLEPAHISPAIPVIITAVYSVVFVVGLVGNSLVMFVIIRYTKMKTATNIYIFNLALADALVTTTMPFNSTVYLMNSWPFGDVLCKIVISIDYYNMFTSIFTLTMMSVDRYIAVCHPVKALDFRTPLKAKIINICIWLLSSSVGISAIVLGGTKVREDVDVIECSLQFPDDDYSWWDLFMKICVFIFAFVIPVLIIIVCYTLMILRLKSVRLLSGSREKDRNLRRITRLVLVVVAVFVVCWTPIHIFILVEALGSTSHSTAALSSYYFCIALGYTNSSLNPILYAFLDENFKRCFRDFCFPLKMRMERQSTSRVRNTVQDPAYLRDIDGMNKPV
Target sequence in this assay (P32121 whole entry partner): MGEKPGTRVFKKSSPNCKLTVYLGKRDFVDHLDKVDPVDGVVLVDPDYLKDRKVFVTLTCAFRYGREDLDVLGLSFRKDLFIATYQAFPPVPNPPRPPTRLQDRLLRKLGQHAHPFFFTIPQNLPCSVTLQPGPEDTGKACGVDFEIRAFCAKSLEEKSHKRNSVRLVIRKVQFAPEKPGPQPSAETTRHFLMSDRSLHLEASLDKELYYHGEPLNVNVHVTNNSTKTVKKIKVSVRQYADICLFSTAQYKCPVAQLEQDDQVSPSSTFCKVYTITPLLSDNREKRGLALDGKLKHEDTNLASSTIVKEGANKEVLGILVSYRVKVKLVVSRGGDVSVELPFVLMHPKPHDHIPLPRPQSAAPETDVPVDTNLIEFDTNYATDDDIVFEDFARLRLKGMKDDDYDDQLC

[4] = target: T3, human KOR (Homo sapiens, UniProt P41145); assay: cell-based; set-up: expressed in transfected cells; host or cells: HEK 293T (ATCC, CRL-3216); conditions: HEK-293T
[5] = target: T4, human KOR (Gi3) (Homo sapiens, UniProt P41145); assay: cell-based; conditions: HEK-293T
T4 construct: expressed in transfected cells; host or cells: HEK293T

[6] = target: T5, human KOR (β-arrestin 2) (Homo sapiens, UniProt P41145); assay: cell-based; conditions: HEK-293T
T5 construct: expressed in transfected cells; host or cells: HEK293T

[7] = target: T6, human KOR (GoB) (Homo sapiens, UniProt P41145); assay: cell-based; conditions: HEK-293T
T6 construct: expressed in transfected cells; host or cells: HEK293T

[8] = target: T3, human KOR; assay: cell-based; set-up: expressed in transfected cells; host or cells: HEK 293T (ATCC, CRL-3216); conditions: HTLA
[9] = target: T7, human KOR (Gustducin) (Homo sapiens, UniProt P41145); assay: cell-based
T7 construct: expressed in transfected cells; host or cells: HEK293T

[10] = target: T3, human KOR; assay: cell-based
[11] = target: T8, human KOR (Homo sapiens, UniProt P41145, W287A); assay: cell-based; conditions: HTLA
T8 construct: expressed in transfected cells; host or cells: HEK 293T (ATCC, CRL-3216)

[12] = target: T9, human KOR (Homo sapiens, UniProt P41145, Q115N); assay: cell-based; conditions: HTLA
T9 construct: expressed in transfected cells; host or cells: HEK 293T (ATCC, CRL-3216)

[13] = target: T10, human KOR (Gi1) (Homo sapiens, UniProt P41145); assay: cell-based
T10 construct: expressed in transfected cells; host or cells: HEK293T

[14] = target: T11, human KOR (Gi2) (Homo sapiens, UniProt P41145); assay: cell-based; conditions: HEK-293T
T11 construct: expressed in transfected cells; host or cells: HEK293T

[15] = target: T12, human KOR (GoA) (Homo sapiens, UniProt P41145); assay: cell-based; conditions: HEK-293T
T12 construct: expressed in transfected cells; host or cells: HEK293T

[16] = target: T13, human KOR (Gz) (Homo sapiens, UniProt P41145); assay: cell-based; conditions: HEK-293T
T13 construct: expressed in transfected cells; host or cells: HEK293T

[17] = tested on: KOR; assay: Bias factor, Gz vs β-arrestin2 (BRET), U50,488 as reference; assay type: cell-based, human
[18] = target: T3, human KOR; assay: cell-based; remark: listed apart in the source
[19] = target: T8, human KOR; assay: cell-based; conditions: HEK-293T
[20] = target: T9, human KOR; assay: cell-based; conditions: HEK-293T
[21] = target: T2, KOR Q115N; assay: cell-based; set-up: expressed in transfected cells; host or cells: HEK 293T (ATCC, CRL-3216); conditions: read-out: cAMP response (Figure S4C), KOR Q115N, Log [Drug], replicate values
Target sequence in this assay (P41145 whole entry Q115N): as the sequence (P41145 whole entry Q115N) above

[22] = tested on: human KOR (Gustducin); conditions: cited from earlier work
[23] = read-out: βArrestin1 (Figure 5A concentration-response, replicate values)
[24] = read-out: cAMP response (Figure S4C)
[25] = read-out: Tango response (Figure S4C)
[26] = read-out: Gz (Figure 5A concentration-response, replicate values)

T3 sequence (P41145 whole entry): as the sequence (P41145 whole entry Q115N) above, with N115Q counted along it
T13 sequence (P41145 whole entry): as the sequence (P41145 whole entry Q115N) above, with N115Q counted along it
T1 sequence (P41145 whole entry): as the sequence (P41145 whole entry Q115N) above, with N115Q counted along it
T8 sequence (P41145 whole entry W287A): as the sequence (P41145 whole entry Q115N) above, with N115Q, W287A counted along it
T7 sequence (P41145 whole entry): as the sequence (P41145 whole entry Q115N) above, with N115Q counted along it
T10 sequence (P41145 whole entry): as the sequence (P41145 whole entry Q115N) above, with N115Q counted along it
T9 sequence (P41145 whole entry Q115N): as the sequence (P41145 whole entry Q115N) above
T5 sequence (P41145 whole entry): as the sequence (P41145 whole entry Q115N) above, with N115Q counted along it
T12 sequence (P41145 whole entry): as the sequence (P41145 whole entry Q115N) above, with N115Q counted along it
T6 sequence (P41145 whole entry): as the sequence (P41145 whole entry Q115N) above, with N115Q counted along it
T4 sequence (P41145 whole entry): as the sequence (P41145 whole entry Q115N) above, with N115Q counted along it
T11 sequence (P41145 whole entry): as the sequence (P41145 whole entry Q115N) above, with N115Q counted along it

## COC(=O)N1CCN(C(=O)Cc2ccc(Cl)c(Cl)c2)C2C(N3CCCC3)CCCC21 (centres unmarked) [WMS-X600]
[1]
  ΔΔLog τ/KA (95% confidence interval): 1 (0.81-1.19)
[2]
  Emax: 93.8%
[2]; [23]
  activation at 0.01 µM: 33.5%
  activation at 1 µM: 86.2%
  activation at 10 µM: 91.8%
[3]; M -5
  activation at 10 µM: 120%
[3]; M -5.5
  activation at […]: 124%
[3]; M -6
  activation at 1 µM: 123%
[3]; M -6.5
  activation at […]: 107%
[3]; M -7
  activation at 0.1 µM: 112%
[3]; M -8
  activation at 0.01 µM: 116%
[3]; M -9.5
  activation at […]: 72.6%
[3]; M -10
  activation at 0.0001 µM: 78.7%
[3]; M -10.5
  activation at 31.62 pM: 43.5%
[4]
  Emax: 95 ± 3%
[4]; [24]
  activation at 31.62 pM: 34.2%
  activation at 0.0001 µM: 56.7%
  activation at 0.001 µM: 78.9%
  activation at 0.01 µM: 101%
  activation at 0.1 µM: 103%
  activation at 1 µM: 91.1%
  activation at […]: 68.9% and 97.5% and 102% and 90.6%
[5]
  Emax: 99.2%
[6]
  Emax: 102 ± 6%
[7]
  Emax: 99.2%
[8]
  Emax: 96 ± 5%
[8]; [25]
  activation at 0.001 µM: 78.7%
  activation at 0.1 µM: 116%
  activation at 1 µM: 112%
  activation at 10 µM: 123%
  activation at […]: 43.5% and 72.6% and 125%
[9]
  Emax%: 94%
[9]; HEK-293T
  Emax: 93.6%
[10]
  increase of potency for arrestin signaling: 5 fold
  loss of potency in arrestin recruitment: 232 fold
[11]
  Emax: 108 ± 7%
[12]
  Emax: 110 ± 6%
[13]
  Emax%: 101.3%
[13]; HEK-293T
  Emax: 84 ± 8%
[14]
  Emax: 99.3%
[15]
  Emax: 99.8%
[16]
  Emax: 97.7%
[16]; [26]
  activation at 0.001 µM: 86.2%
  activation at 0.01 µM: 100%
  activation at 0.1 µM: 101%
  activation at 1 µM: 95.2%
  activation at 10 µM: 97.8%
[17]
  bias factor towards arrestin pathway: 8.6
[18]
  increase of potency for G protein signaling: 10 fold
  loss of potency in G protein activation: 82 fold
[19]
  Emax: 98 ± 5%
[20]
  Emax: 103 ± 1%
[21]; M -6
  activation at 1 µM: 99.1%
[21]; M -6.5
  activation at […]: 107%
[21]; M -7
  activation at 0.1 µM: 105%
[21]; M -7.5
  activation at […]: 104%
[21]; M -8
  activation at 0.01 µM: 103%
[21]; M -8.5
  activation at […]: 100%
[21]; M -9
  activation at 0.001 µM: 97.8%
[21]; M -9.5
  activation at […]: 101%
[21]; M -10
  activation at 0.0001 µM: 92.8%
[21]; M -10.5
  activation at 31.62 pM: 81.3%
[21]; M -11
  activation at 10 pM: 56.3%
[21]; M -11.5
  activation at 3.162 pM: 33.3%

## dynorphin A 1–13
[22]
  activity at Gustducin: nearly inactive
